Measured values published in US10179797B2, “Phosphinic peptide derivatives for use as MMP-12 inhibitors” (DSM IP ASSETS B.V., priority 2015, dated 2019).

Assays:
[1] = target: T1, MMP-12 (Homo sapiens, UniProt P39900); test: MMP-12 Fluorometric Drug Discovery Kit inhibition assay; assay type: biochemical; parameters: purchased Enzo Life Sciences Inc., Farmingdale, N.Y., USA; settings: read-out: % Inhibition after 20 min
Excerpt: The MMP-12 inhibitor activity was quantified by fluorometric analysis using the MMP-12 Fluorometric Drug Discovery Kit (Enzo Life Sciences Inc., Farmingdale, N.Y., USA) according to the manufacturers' instructions.
Target sequence in this assay (P39900 106-263 limits assumed): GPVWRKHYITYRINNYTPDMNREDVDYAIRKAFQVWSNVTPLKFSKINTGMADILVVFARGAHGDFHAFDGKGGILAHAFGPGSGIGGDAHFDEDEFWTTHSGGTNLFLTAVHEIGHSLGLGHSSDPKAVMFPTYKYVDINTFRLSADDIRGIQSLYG

[2] = test system: Human skin; test: Total dermal elastin after UV-irradiation of cultured human skin samples; settings: concentration 100 [μm]; for Increase vs. untreated-UV: day 6, (Dermal elastin sample − Dermal Elastin UV)/Dermal Elastin UV * 100%; for Dermal elastin: topical twice a day, daily 45 J/cm^2 UVA, day 6, papillary dermis, non-UV treated sample = 100%
Protocol: Human skin from abdominal plastic surgery classified as “Intermediate” (ITA° angle=53°) has been used. The skin samples were cut in pieces of approx. 8×3 mm (ø×thickness) and cultured up to day 6 in an air-liquid interface in a perforated ring of stainless steel in contact with a culture medium (modified Williams'E medium), the culture medium was renewed every three days. Eight skin specimens were used for each treatment. Each test sample (4 μl) was topically applied twice a day, immediately after UV irradiation and renewed 4 hours later top of each piece after gentle cleaning of the surface with a cotton pad followed by covering with a 6 ømm delivery membrane, which procedure was repeated daily. The samples were irradiated daily with 800% of the Biological Effective Dose of daylight (BED; Del Bino et al, Pigment Cell research, 19, 2006) equal to a dose of 45 J/cm^2 UVA using an adopted BIO-SUN system (Vilber Lourmat). At day 6 twelve skin sections were immunostained with mouse monoclonal anti-Elastin antibody (Sigma cat#E4013). The papillary dermis is selected for the analysis. The evaluation has been performed by estimating both color intensity and distribution with IMAGE J (NIH) analysis software Two slides of each skin sample have been processed by image acquisition and related analysis (i.e. 12 images for each treatment). The score of the dermal Elastin of the non-UV treated sample was set to 100%.

[3] = target: T1, MMP-12; test: Inhibition of MMP-12 degradation of elastin fibers produced by human dermal fibroblasts; assay type: cell-based; settings: MMP-12 200 U/ml, 2 hrs at 37° C.
Protocol: Human dermal fibroblasts were pre-cultured in DMEM, 10% FCS, 1% P/S for 48 hrs before starving them in DMEM, 0.2% FCS, 1% P/S for 24 hrs. To induce elastin fiber production TGFb1 (10 ng/ml) was added and incubated for 5 days. After incubation with TGFb1, medium was carefully discarded and cells were washed with assay buffer (HBSS, […] HEPES). In the meantime MMP-12 (200 U/ml) and compounds were mixed in assay buffer and allowed to interact for 30 min. This mixture was then added to the cells and incubated for 2 hrs at 37° C.
Cells were then fixed with ice-cold methanol for 5 min and rehydrated by PBS. Unspecific sites were blocked with 1% BSA in PBS for 1 h at room temperature. Elastin fibers were detected using a primary antibody against elastin and the first antibody was detected with AlexaFluor 488 conjugated secondary antibody. Finally, nuclei were counterstained with DAPI. Stained cells were analyzed with the Thermo Scientific ArrayScan XTI Live High Content Platform. 49 pictures per well were acquired with a 20× objective and as readout we used the area covered by the elastin fibers. % of inhibition of elastin fiber degradation was calculated the following way: % protection of elastin fiber network degradation=100−[(max area−min area)/(max area inhibitor area)*100] in which max area=area covered by elastin fibers of untreated control cells min area=area covered by elastin fibers of MMP12 treated cells inhibitor area=area covered by elastin fibers of MMP12 and inhibitor treated cells.
Target sequence in this assay (P39900 106-470, species assumed): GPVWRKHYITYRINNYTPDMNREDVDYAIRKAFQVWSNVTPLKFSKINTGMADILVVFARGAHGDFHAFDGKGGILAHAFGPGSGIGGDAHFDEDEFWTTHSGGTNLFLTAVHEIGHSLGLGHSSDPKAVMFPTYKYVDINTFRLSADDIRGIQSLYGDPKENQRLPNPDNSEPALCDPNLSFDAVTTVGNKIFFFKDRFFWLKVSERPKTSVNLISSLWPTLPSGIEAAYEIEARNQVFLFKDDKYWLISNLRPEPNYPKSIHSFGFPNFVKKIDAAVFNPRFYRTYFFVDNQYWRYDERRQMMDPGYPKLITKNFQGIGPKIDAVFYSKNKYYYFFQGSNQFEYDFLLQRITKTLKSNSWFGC

inhibition at 0.5 µM [1] [%] | inhibition at 1 µM [1] [%] | inhibition at 10 µM [1] [%] | SMILES | further results
75 | 82 | 92 | COC(=O)[C@H](Cc1csc2ccccc12)NC(=O)[C@H](Cc1ccc(-c2ccccc2)cc1)CP(=O)(O)CCc1ccccc1 [(I)-A] | 
93 | 94 | 92 | O=C(N[C@@H](Cc1c[nH]c2ccccc12)C(=O)O)[C@H](Cc1ccc(-c2ccccc2)cc1)CP(=O)(O)CCc1ccccc1 [(I)-C] | 
85 | 90 | 91 | COC(=O)[C@H](CCNC(=O)OC(C)(C)C)NC(=O)[C@@H](Cc1ccc(-c2ccccc2)cc1)CP(=O)(O)CCc1ccccc1 [(I)-D] | 
73 | 82 | 91 | CC(C)C[C@H](NC(=O)[C@H](Cc1ccc(-c2ccccc2)cc1)CP(=O)(O)CCc1ccccc1)C(=O)OC(C)(C)C [(I)-F] | 
78 | 85 | 91 | O=C(N[C@@H](Cc1ccc2ccccc2c1)C(=O)O)[C@@H](Cc1ccc(-c2ccccc2)cc1)CP(=O)(O)CCc1ccccc1 [(I)-G] | 
83 | 89 | 91 | CCCC[C@H](NC(=O)[C@H](Cc1ccc(-c2ccccc2)cc1)CP(=O)(O)CCc1ccccc1)C(=O)OC [(I)-H] | 
84 | 89 | 90 | NC(=O)C[C@H](NC(=O)[C@@H](Cc1ccc(-c2ccccc2)cc1)CP(=O)(O)CCc1ccccc1)C(=O)O [(I)-I] | 
93 | 94 | 90 | C[C@H](NC(=O)[C@H](Cc1ccc(-c2ccccc2)cc1)CP(=O)(O)CCc1ccccc1)C(=O)O [(I)-J] | 
69 | 79 | 90 | O=C(N[C@@H](Cc1c[nH]c2ccccc12)C(=O)O)[C@@H](Cc1ccc(-c2ccccc2)cc1)CP(=O)(O)CCc1ccccc1 [(I)-K] | 
75 | 82 | 90 | O=C(O)CCCNC(=O)C(Cc1ccc(-c2ccccc2)cc1)CP(=O)(O)CCc1ccccc1 (stereo not drawn) [(I)-L] | 
52 | 64 | 89 | O=C(N[C@@H](Cc1csc2ccccc12)C(=O)O)[C@@H](Cc1ccc(-c2ccccc2)cc1)CP(=O)(O)CCc1ccccc1 [(I)-M] | 
 |  | 89 | CCCC[C@H](NC(=O)[C@@H](Cc1ccc(-c2ccccc2)cc1)CP(=O)(O)CCc1ccccc1)C(=O)O [(I)-N] | 
 |  | 88 | NC(=O)C[C@H](NC(=O)[C@H](Cc1ccc(-c2ccccc2)cc1)CP(=O)(O)CCc1ccccc1)C(=O)O [(I)-O] | 
 |  | 88 | CC[C@H](NC(=O)[C@H](Cc1ccc(-c2ccccc2)cc1)CP(=O)(O)CCc1ccccc1)C(=O)OC(C)(C)C [(I)-P] | 
 |  | 83 | O=C(N[C@@H](Cc1ccc2ccccc2c1)C(=O)OCc1ccccc1)[C@H](Cc1ccc(-c2ccccc2)cc1)CP(=O)(O)CCc1ccccc1 [(I)-Q] | 
 |  | 82 | CC(C)(C)OC(=O)[C@H](Cc1cn(C(=O)OC(C)(C)C)c2ccccc12)NC(=O)C(Cc1ccc(-c2ccccc2)cc1)CP(=O)(O)CCc1ccccc1 (stereo partly drawn) [(I)-R] | 
 |  | 82 | COC(=O)[C@@H](NC(=O)[C@H](Cc1ccc(-c2ccccc2)cc1)CP(=O)(O)CCc1ccccc1)C1CCCCC1 [(I)-S, ((S)-2-([1,1′-biphenyl]-4-ylmethyl)-3-(((S)-1-cyclohexyl-2-methoxy-2-oxoethyl)amino)-3-oxopropyl)(phenethyl)phosphinic acid] | 
 |  | 61 | COC(=O)C(C)(C)NC(=O)C(Cc1ccc(-c2ccccc2)cc1)CP(=O)(O)CCc1ccccc1 (stereo not drawn) [(I)-V, (2-([1,1′-biphenyl]-4-ylmethyl)-3-((1-methoxy-2-methyl-1-oxopropan-2-yl)amino)-3-oxopropyl)(phenethyl)phosphinic acid] | 
 |  |  | O=C(NC(Cc1c[nH]c2ccccc12)C(=O)O)C(Cc1ccc(-c2ccccc2)cc1)CP(=O)(O)CCc1ccccc1.O=C(O)C(F)(F)F (stereo not drawn) [(I)-c, (3-([1,1′-biphenyl]-4-yl)-2-((hydroxy(phenethyl)phosphoryl)methyl)propanoyl)tryptophan compound with 2,2,2-trifluoroacetic acid (1:1)] | Increase vs. untreated-UV [2]: +52%; Dermal elastin [2]: 123%
 |  |  | CCC(C)C(NC(=O)C(Cc1ccc(-c2ccccc2)cc1)CP(=O)(O)CCc1ccccc1)C(=O)O (stereo not drawn) [(I)-e, 2-(3-([1,1′-biphenyl]-4-yl)-2-((hydroxy(phenethyl)phosphoryl)methyl)propanamido)-3-methylpentanoic acid] | % protection of elastin fiber network degradation ([3]; 0.05 μM): 12.44%; % protection of elastin fiber network degradation ([3]; 1 μM): 68.17%; % protection of elastin fiber network degradation ([3]; 20 μM): 83.73%
 |  |  | CCCCC(NC(=O)C(Cc1ccc(-c2ccccc2)cc1)CP(=O)(O)CCc1ccccc1)C(=O)O (stereo not drawn) [(I)-k, 2-(3-([1,1′-biphenyl]-4-yl)-2-((hydroxy(phenethyl)phosphoryl)methyl)propanamido)hexanoic acid] | Increase vs. untreated-UV [2]: +54%; Dermal elastin [2]: 125%
 |  |  | CC(NC(=O)C(Cc1ccc(-c2ccccc2)cc1)CP(=O)(O)CCc1ccccc1)C(=O)O (stereo not drawn) [(I)-m, (3-([1,1′-biphenyl]-4-yl)-2-((hydroxy(phenethyl)phosphoryl)methyl)propanoyl)alanine] | Increase vs. untreated-UV [2]: +30%; Dermal elastin [2]: 106%

SMILES | inhibition at 0.5 µM [1] [%] | inhibition at 1 µM [1] [%] | inhibition at 10 µM [1] [%] | further results
CCC(C)[C@H](NC(=O)[C@H](Cc1ccc(-c2ccccc2)cc1)CP(=O)(O)CCc1ccccc1)C(=O)O (stereo partly drawn) [(I)-B] | 94 | 94 | 92 | 
CC[C@@H](C)[C@H](NC(=O)[C@@H](Cc1ccc(-c2ccccc2)cc1)CP(=O)(O)CCc1ccccc1)C(=O)OC(C)(C)C [(I)-T, ((R)-2-([1,1′-biphenyl]-4-ylmethyl)-3-(((2S,3R)-1-(tert-butoxy)-3-methyl-1-oxopentan-2-yl)amino)-3-oxopropyl)(phenethyl)phosphinic acid] |  |  | 75 | 
CC[C@@H](C)[C@H](NC(=O)[C@H](Cc1ccc(-c2ccccc2)cc1)CP(=O)(O)CCc1ccccc1)C(=O)OC(C)(C)C [(I)-U, ((S)-2-([1,1′-biphenyl]-4-ylmethyl)-3-(((2S,3R)-1-(tert-butoxy)-3-methyl-1-oxopentan-2-yl)amino)-3-oxopropyl)(phenethyl)phosphinic acid] |  |  | 72 | 
